Blank lines part the entries; values can stand above or below the molecule they belong to.
Legend:
[1] = target: T1, Solute carrier organic anion transporter family member 1A2 (Homo sapiens, UniProt P46721); experiment: TP_TRANSPORTER: inhibition of Fexofenadine uptake (Fexofenadine: 2 uM, Ketoconazole: 100 uM) in Xenopus laevis oocytes; type: functional, cell-based; design: scale not given: the % may be the effect or the level left; settings: oocyte
T1 sequence (P46721 whole entry): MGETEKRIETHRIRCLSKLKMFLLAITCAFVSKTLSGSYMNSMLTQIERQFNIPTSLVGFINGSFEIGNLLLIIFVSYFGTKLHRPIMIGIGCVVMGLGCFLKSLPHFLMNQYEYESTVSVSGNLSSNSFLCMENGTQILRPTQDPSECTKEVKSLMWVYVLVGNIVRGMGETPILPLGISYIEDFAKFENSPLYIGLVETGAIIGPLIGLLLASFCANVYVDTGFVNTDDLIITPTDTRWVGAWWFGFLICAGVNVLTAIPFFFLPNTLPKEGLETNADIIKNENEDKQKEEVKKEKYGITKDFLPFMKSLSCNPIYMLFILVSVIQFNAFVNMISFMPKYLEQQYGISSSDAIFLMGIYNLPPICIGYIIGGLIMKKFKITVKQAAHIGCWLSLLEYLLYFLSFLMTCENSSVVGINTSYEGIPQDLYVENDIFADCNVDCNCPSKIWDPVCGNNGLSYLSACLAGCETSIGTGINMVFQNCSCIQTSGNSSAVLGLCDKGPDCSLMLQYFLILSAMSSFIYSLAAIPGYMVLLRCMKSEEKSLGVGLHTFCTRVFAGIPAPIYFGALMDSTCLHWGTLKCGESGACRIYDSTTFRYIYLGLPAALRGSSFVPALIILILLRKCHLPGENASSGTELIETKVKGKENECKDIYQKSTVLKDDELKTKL

[2] = target: T2, ATP-dependent translocase ABCB1 (Mus musculus, UniProt P21447); experiment: TP_TRANSPORTER: increase in spleen concentration in mdr1a(-/-) mouse; type: functional, organism-based; settings: in vivo
[3] = target: T2, ATP-dependent translocase ABCB1; experiment: TP_TRANSPORTER: increase in small intestine concentration in mdr1a(-/-) mouse; type: functional, organism-based; settings: in vivo
[4] = target: T2, ATP-dependent translocase ABCB1; experiment: TP_TRANSPORTER: increase in plasma concentration in mdr1a(-/-) mouse; type: functional, organism-based; settings: in vivo
[5] = target: T2, ATP-dependent translocase ABCB1; experiment: TP_TRANSPORTER: increase in liver concentration in mdr1a(-/-) mouse; type: functional, organism-based; settings: in vivo
[6] = target: T2, ATP-dependent translocase ABCB1; experiment: TP_TRANSPORTER: increase in kidney concentration in mdr1a(-/-) mouse; type: functional, organism-based; settings: in vivo
[7] = target: T2, ATP-dependent translocase ABCB1; experiment: TP_TRANSPORTER: increase in heart concentration in mdr1a(-/-) mouse; type: functional, organism-based; settings: in vivo
[8] = target: T1, Solute carrier organic anion transporter family member 1A2; experiment: TP_TRANSPORTER: inhibition of Fexofenadine uptake (Fexofenadine: 2 uM, Nelfinavir: 100 uM) in Xenopus laevis oocytes; type: functional, cell-based; design: scale not given: the % may be the effect or the level left; settings: oocyte
[9] = target: T1, Solute carrier organic anion transporter family member 1A2; experiment: TP_TRANSPORTER: inhibition of Fexofenadine uptake (Fexofenadine: 2 uM, Lovastatin: 100 uM) in Xenopus laevis oocytes; type: functional, cell-based, Oocyte; settings: probe Fexofenadine
[10] = target: T1, Solute carrier organic anion transporter family member 1A2; experiment: TP_TRANSPORTER: inhibition of Fexofenadine uptake (Fexofenadine: 2 uM, Quinidine: 100 uM) in Xenopus laevis oocytes; type: functional, cell-based, Oocyte; settings: probe Fexofenadine, read-out: Activity
[11] = target: T1, Solute carrier organic anion transporter family member 1A2; experiment: TP_TRANSPORTER: inhibition of Fexofenadine uptake (Fexofenadine: 2 uM, PSC-833: 100 uM) in Xenopus laevis oocytes; type: functional, cell-based, Oocyte; settings: probe Fexofenadine
[12] = target: T1, Solute carrier organic anion transporter family member 1A2; experiment: TP_TRANSPORTER: inhibition of Fexofenadine uptake (Fexofenadine: 2 uM, Saquinavir: 100 uM) in Xenopus laevis oocytes; type: functional, cell-based; design: scale not given: the % may be the effect or the level left; settings: oocyte
[13] = target: T1, Solute carrier organic anion transporter family member 1A2; experiment: TP_TRANSPORTER: inhibition of Fexofenadine uptake (Fexofenadine: 2 uM, Indinavir: 100 uM) in Xenopus laevis oocytes; type: functional, cell-based; design: scale not given: the % may be the effect or the level left; settings: oocyte
[14] = target: T1, Solute carrier organic anion transporter family member 1A2; experiment: TP_TRANSPORTER: inhibition of Fexofenadine uptake (Fexofenadine: 2 uM, Verapamil: 100 uM) in Xenopus laevis oocytes; type: functional, cell-based, Oocyte; settings: probe Fexofenadine
[15] = target: T1, Solute carrier organic anion transporter family member 1A2; experiment: TP_TRANSPORTER: inhibition of Fexofenadine uptake (Fexofenadine: 2 uM, Erythromycin: 100 uM) in Xenopus laevis oocytes; type: functional, cell-based; design: scale not given: the % may be the effect or the level left; settings: oocyte
[16] = substrate: CC(C)(C(=O)O)c1ccc(C(O)CCCN2CCC(C(O)(c3ccccc3)c3ccccc3)CC2)cc1; experiment: TP_TRANSPORTER: uptake in Oatp2-expressing HeLa cells; type: functional, cell-based

T2 sequence (P21447 whole entry): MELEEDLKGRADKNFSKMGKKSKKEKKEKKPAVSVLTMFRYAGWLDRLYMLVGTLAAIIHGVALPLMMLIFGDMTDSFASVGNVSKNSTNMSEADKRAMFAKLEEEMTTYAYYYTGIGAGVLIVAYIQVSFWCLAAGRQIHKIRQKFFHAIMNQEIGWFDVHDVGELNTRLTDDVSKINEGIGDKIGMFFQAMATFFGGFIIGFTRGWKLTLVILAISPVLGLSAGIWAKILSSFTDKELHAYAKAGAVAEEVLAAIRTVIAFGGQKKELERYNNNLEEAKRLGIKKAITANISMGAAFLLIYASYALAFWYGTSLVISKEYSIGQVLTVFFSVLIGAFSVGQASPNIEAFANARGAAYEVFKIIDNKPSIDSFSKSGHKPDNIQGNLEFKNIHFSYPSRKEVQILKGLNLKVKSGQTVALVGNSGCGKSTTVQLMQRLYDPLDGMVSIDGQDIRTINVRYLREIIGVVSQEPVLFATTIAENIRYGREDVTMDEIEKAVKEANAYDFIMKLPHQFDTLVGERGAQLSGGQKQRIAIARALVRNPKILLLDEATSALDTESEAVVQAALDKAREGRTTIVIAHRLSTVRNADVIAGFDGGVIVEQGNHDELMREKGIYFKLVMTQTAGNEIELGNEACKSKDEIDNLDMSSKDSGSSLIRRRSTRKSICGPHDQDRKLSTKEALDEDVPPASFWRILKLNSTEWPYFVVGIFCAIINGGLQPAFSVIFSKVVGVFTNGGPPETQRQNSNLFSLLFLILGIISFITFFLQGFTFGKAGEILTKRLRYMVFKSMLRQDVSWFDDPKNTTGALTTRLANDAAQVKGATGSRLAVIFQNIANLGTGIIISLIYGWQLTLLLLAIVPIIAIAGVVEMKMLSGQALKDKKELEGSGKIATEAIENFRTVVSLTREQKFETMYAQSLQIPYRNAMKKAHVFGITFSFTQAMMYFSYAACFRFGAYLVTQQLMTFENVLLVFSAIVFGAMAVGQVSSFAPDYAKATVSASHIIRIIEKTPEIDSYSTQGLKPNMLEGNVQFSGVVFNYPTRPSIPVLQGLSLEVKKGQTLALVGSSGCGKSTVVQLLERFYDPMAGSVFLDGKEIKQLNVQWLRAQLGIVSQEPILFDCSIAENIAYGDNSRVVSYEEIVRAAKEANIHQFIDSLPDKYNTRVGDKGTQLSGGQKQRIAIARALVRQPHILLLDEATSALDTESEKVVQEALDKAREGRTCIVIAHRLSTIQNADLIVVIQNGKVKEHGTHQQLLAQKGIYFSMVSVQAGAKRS

Molecule: CC(=O)N1CCN(c2ccc(OCC3COC(Cn4ccnc4)(c4ccc(Cl)cc4Cl)O3)cc2)CC1 (stereo unspecified) [KETOCONAZOLE]
- Activity [1]: 107%

Molecule: CC[C@H](C)C(=O)O[C@H]1C[C@@H](C)C=C2C=C[C@H](C)[C@H](CC[C@@H]3C[C@@H](O)CC(=O)O3)[C@H]21 [LOVASTATIN]
- inhibition at 100 µM [9]: 95%

Molecule: C/C=C/C[C@@H](C)C(=O)[C@H]1C(=O)N[C@@H](C(C)C)C(=O)N(C)CC(=O)N(C)[C@@H](CC(C)C)C(=O)N[C@@H](C(C)C)C(=O)N(C)[C@@H](CC(C)C)C(=O)N[C@@H](C)C(=O)N[C@H](C)C(=O)N(C)[C@@H](CC(C)C)C(=O)N(C)[C@@H](CC(C)C)C(=O)N(C)[C@@H](C(C)C)C(=O)N1C [VALSPODAR]
- inhibition at 100 µM [11]: 85%

Molecule: CC[C@H]1OC(=O)[C@H](C)[C@@H](O[C@H]2C[C@@](C)(OC)[C@@H](O)[C@H](C)O2)[C@H](C)[C@@H](O[C@@H]2O[C@H](C)C[C@H](N(C)C)[C@H]2O)[C@](C)(O)C[C@@H](C)C(=O)[C@H](C)[C@@H](O)[C@]1(C)O [ERYTHROMYCIN]
- Activity [15]: 66%

B1: Solute carrier organic anion transporter family member 1A4 (Rattus norvegicus) (protein)
chain: MGKSEKRVATHGVRCFAKIKMFLLALTCAYVSKSLSGTYMNSMLTQIERQFGIPTSIVGLINGSFEIGNLLLIIFVSYFGTKLHRPIMIGVGCAVMGLGCFLISLPHFLMGQYEYETILPTSNVSSNSFFCVENRSQTLNPTQDPSECVKEMKSLMWIYVLVGNIIRGIGETPIMPLGISYIEDFAKSENSPLYIGILETGMTIGPLIGLLLASSCANIYVDIESVNTDDLTITPTDTRWVGAWWIGFLVCAGVNILTSFPFFFFPKTLPKEGLQENVDGTENAKEKKHRKKAKEEKRGITKDFFVFMKSLSCNPIYMLFILISVLQFNAFINSFTFMPKYLEQQYGKSTAEVVFLMGLYMLPPICLGYLIGGLIMKKFKVTVKKAAHLAFWLCLSEYLLSFLSYVMTCDNFPVAGLTTSYEGVQHQLYVENKVLADCNTRCNCSTNTWDPVCGDNGLAYMSACLAGCEKSVGTGTNMVFQNCSCIQSSGNSSAVLGLCNKGPDCANKLQYFLIIAIFGCFIYSLAGIPGYMVLLRCIKSEEKSLGVGLHAFCIRILAGIPAPIYFGALIDRTCLHWGTLKCGEPGACRMYDINSFRRLYLGLPAALRGASFVPAFFILRLTRTFQFPGDIESSKTDHAEMKLTLKESECTEVLRSKVTED
- Km [16]: 6 µM

Results, then the molecule that gave them:

- Activity [2]: substrate [+]
- Activity [3]: substrate [+]
- Activity [4]: substrate [+]
- Activity [5]: substrate [+]
- Activity [6]: substrate [+]
- Activity [7]: substrate [+]
Molecule: CC(C)(C(=O)O)c1ccc(C(O)CCCN2CCC(C(O)(c3ccccc3)c3ccccc3)CC2)cc1 (stereo unspecified) [FEXOFENADINE]

- Activity [8]: 81%
Molecule: Cc1c(O)cccc1C(=O)N[C@@H](CSc1ccccc1)[C@H](O)CN1C[C@H]2CCCC[C@H]2C[C@H]1C(=O)NC(C)(C)C

- inhibition at 100 µM [10]: 91%
Molecule: C=C[C@H]1C[N@@]2CC[C@H]1C[C@@H]2[C@@H](O)c1ccnc2ccc(OC)cc12 [QUINIDINE]

- Activity [12]: 105%
Molecule: CC(C)(C)NC(=O)[C@@H]1C[C@@H]2CCCC[C@@H]2CN1C[C@@H](O)[C@H](Cc1ccccc1)NC(=O)[C@H](CC(N)=O)NC(=O)c1ccc2ccccc2n1

- Activity [13]: 70%
Molecule: CC(C)(C)NC(=O)[C@@H]1CN(Cc2cccnc2)CCN1C[C@@H](O)C[C@@H](Cc1ccccc1)C(=O)N[C@H]1c2ccccc2C[C@H]1O.O

- inhibition at 100 µM [14]: 100%
Molecule: COc1ccc(CCN(C)CCCC(C#N)(c2ccc(OC)c(OC)c2)C(C)C)cc1OC (stereo unspecified)

From ChEMBL document CHEMBL2074500 (Drug Metab Dispos, 1999)
